In ChEMBL document CHEMBL1141757, “Structural revision of aspernigrin A, reisolated from Cladosporium herbarum IFB-E002” (J Nat Prod, 2005):

Assays:
[1] = biological target: Xanthine dehydrogenase/oxidase (Homo sapiens, UniProt P47989); assay: Inhibition of xanthine oxidase
[2] = Cytotoxicity against human SW1116 cells; type: functional, cell-based; conditions: SW 1116

Xanthine dehydrogenase/oxidase, sequence (P47989 whole entry): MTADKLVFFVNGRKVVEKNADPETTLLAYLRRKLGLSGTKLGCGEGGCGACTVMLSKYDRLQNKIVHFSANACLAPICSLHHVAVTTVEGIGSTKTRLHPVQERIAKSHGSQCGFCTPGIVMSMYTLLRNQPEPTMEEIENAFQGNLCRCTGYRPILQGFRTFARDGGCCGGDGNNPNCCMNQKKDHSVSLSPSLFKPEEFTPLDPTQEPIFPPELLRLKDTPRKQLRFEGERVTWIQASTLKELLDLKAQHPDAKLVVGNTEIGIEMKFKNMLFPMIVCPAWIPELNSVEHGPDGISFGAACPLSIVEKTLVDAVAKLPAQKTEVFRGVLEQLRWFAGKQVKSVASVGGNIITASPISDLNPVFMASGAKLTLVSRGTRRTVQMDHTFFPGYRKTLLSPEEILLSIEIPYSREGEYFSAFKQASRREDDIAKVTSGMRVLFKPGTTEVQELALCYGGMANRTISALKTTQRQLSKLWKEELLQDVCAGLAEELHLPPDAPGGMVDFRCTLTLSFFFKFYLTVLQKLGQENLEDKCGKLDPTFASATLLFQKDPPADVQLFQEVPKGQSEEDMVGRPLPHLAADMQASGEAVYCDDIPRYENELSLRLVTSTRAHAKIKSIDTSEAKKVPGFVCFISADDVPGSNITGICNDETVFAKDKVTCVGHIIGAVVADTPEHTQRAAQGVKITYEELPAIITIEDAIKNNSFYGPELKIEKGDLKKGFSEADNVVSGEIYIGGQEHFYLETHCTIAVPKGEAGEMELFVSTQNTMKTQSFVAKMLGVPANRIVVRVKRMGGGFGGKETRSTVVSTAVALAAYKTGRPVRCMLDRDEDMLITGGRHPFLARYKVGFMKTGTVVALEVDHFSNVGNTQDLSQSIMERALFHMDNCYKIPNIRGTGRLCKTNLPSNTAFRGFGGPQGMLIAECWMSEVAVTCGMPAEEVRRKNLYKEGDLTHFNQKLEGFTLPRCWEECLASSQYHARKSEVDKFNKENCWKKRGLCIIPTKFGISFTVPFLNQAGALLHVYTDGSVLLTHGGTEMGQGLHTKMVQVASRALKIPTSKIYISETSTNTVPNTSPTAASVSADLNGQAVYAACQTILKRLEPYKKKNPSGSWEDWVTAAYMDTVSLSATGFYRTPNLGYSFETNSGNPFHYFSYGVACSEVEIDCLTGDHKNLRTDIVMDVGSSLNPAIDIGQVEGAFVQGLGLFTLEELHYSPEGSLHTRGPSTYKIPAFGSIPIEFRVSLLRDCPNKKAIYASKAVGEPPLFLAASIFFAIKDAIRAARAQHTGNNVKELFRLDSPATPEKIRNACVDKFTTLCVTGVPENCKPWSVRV

SMILES	IC50 [1]	IC50 [2]
COc1cc(OC)c2c(O)c3c(=O)cc(C)oc3c(-c3c(OC)cc4cc(O)c5c(=O)cc(C)oc5c4c3OC)c2c1 [FONSECINONE A]	19.5 µM	–
COc1cc(OC)c2c(O)c3c(=O)cc(C)oc3cc2c1 [RUBROFUSARIN B]	16.8 µM	15.7 µM
